ChEMBL document CHEMBL4811294, “Synthesis and biological activity of conformationally restricted indole-based inhibitors of neurotropic alphavirus replication: Generation of a three-dimensional pharmacophore” (Bioorg Med Chem Lett, 2021)

What was measured:
[1] = Cytotoxicity against golden hamster BSR-T7 cells assessed as reduction in cell viability measured after 18 to 24 hrs by MTT assay; type: cell-based, Mesocricetus auratus, BSR-T7/5
[2] = tested on: Western equine encephalitis virus; test: Antiviral activity against Western equine encephalitis virus infected in BSR-T7 cells assessed as inhibition of viral genome replicon replication measured after 18 to 24 hrs by luciferase assay; type: functional, organism-based; conditions: BSR-T7/5
[3] = Antiviral activity against FMV infected in human BE2C cells assessed as reduction in virus-induced cytopathicity at 25 uM relative to control
[4] = Antiviral activity against FMV infected in human BE2C cells assessed as reduction in virus-induced cytopathicity at 5 uM relative to control
[5] = Antiviral activity against FMV infected in human BE2C cells assessed as reduction in virus-induced cytopathicity by measuring cell viability at 5 uM (reference value: 19.6 +/-4%)
[6] = Antiviral activity against FMV infected in human BE2C cells assessed as reduction in virus-induced cytopathicity by measuring cell viability at 25 uM (reference value: 19.6 +/-4%)

| SMILES | IC50 [2] [µM] | CC50 ([1]; bsr-t7/5, time 18-24 hrs) [µM] | further results |
| --- | --- | --- | --- |
| O=C(NCc1ccccc1)C1CCN(C(=O)c2cc3ccccc3n2Cc2ccc(Cl)cc2)CC1 | 30.6 | – | CC50 ([1]; BSR-T7 cells, time 18-24 hrs): > 100 µM |
| O=C(NCCc1ccncc1)C1CCN(C(=O)c2cc3ccccc3n2Cc2ccc(Cl)cc2)CC1 | – | – | fold change (FC) [3]: 2 |
| O=C(c1cc2ccccc2n1Cc1ccc(Cl)cc1)N1CCC(/C=C/CCc2ccncc2)CC1 | > 50 | – | – |
| Cc1cccc2cc(C(=O)N3CCC(C(=O)NCc4ccccc4)CC3)n(Cc3ccc(Cl)cc3)c12 | 61 | > 100 | – |
| O=C(CC1CCN(C(=O)c2cc3ccccc3n2Cc2ccc(Cl)cc2)CC1)NCc1ccncc1 | 24.7 | 77.3 | – |
| O=C(NCCCc1ccccc1)C1CCN(C(=O)c2cc3ccccc3n2Cc2ccc(Cl)cc2)CC1 | > 100 | > 50 | – |
| O=C(c1cc2ccccc2n1Cc1ccc(Cl)cc1)N1CCC(/C=C\CCc2ccncc2)CC1 | > 50 | > 50 | – |
| O=C(c1cc2ccccc2n1Cc1ccc(Cl)cc1)N1CCC(C(=O)N2Cc3ccccc3C2)CC1 | > 100 | > 100 | – |
| O=C(NCCc1ccncc1)C1=CCN(C(=O)c2cc3ccccc3n2Cc2ccc(Cl)cc2)CC1 | 3.9 | 74.2 | – |
| O=C(NCC1CCc2ccccc21)C1CCN(C(=O)c2cc3ccccc3n2Cc2ccc(Cl)cc2)CC1 (stereo not drawn) | 7.1 | > 100 | – |
| Cc1c(C(=O)N2CCC(C(=O)NCc3ccccc3)CC2)n(Cc2ccc(Cl)cc2)c2ccccc12 | > 100 | > 100 | – |
| O=C(c1cc2ccccc2n1Cc1ccc(Cl)cc1)N1CCC(C(=O)N2CCc3ccccc32)CC1 | > 100 | > 100 | – |
| O=C(NCCc1ccncc1)[C@H]1[C@@H]2CCN(C(=O)c3cc4ccccc4n3Cc3ccc(Cl)cc3)C[C@@H]21 | 24.6 | > 100 | – |
| O=C(NCCc1ccncc1)N1CCN(C(=O)c2cc3ccccc3n2Cc2ccc(Cl)cc2)CC1 | 24.4 | 78 | – |
| CN(CCc1ccncc1)C(=O)[C@@H]1C[C@H]2CC[C@@H](C1)N2C(=O)c1cc2ccccc2n1Cc1ccc(Cl)cc1 | 0.96 | 50.9 | – |
| O=C(NCCc1ccncc1)C1CC2(C1)CN(C(=O)c1cc3ccccc3n1Cc1ccc(Cl)cc1)C2 | 10.9 | 56.5 | – |
| O=C(NCCc1ccncc1)C1CCCN(C(=O)c2cc3ccccc3n2Cc2ccc(Cl)cc2)CC1 (stereo not drawn) | 0.49 | 41.1 | fold change (FC) [4]: 2; Activity [5]: 36.1%; Activity [6]: 22.9% |
| O=C(c1cc2ccccc2n1Cc1ccc(Cl)cc1)N1CCC(C(=O)N2CCC(c3ccccc3)C2)CC1 (stereo not drawn) | > 100 | > 100 | – |
| O=C(CCc1ccncc1)NC1CCN(C(=O)c2cc3ccccc3n2Cc2ccc(Cl)cc2)CC1 | 17.6 | 66.7 | – |
| O=C(NC1Cc2ccccc2C1)C1CCN(C(=O)c2cc3ccccc3n2Cc2ccc(Cl)cc2)CC1 | > 100 | > 100 | – |
| O=C(NCC1Cc2ccccc2C1)C1CCN(C(=O)c2cc3ccccc3n2Cc2ccc(Cl)cc2)CC1 | 0.53 | > 100 | – |
| O=C(c1cc2ccccc2n1Cc1ccc(Cl)cc1)N1CC[C@H]2C(=O)N(CCc3ccncc3)C[C@H]2C1 | 24.4 | 61 | – |
| O=C(c1cc2ccccc2n1Cc1ccc(Cl)cc1)N1CCC(C(=O)N2CCCC2c2ccccc2)CC1 (stereo not drawn) | > 100 | > 100 | – |
| O=C(NC1CCc2ccccc21)C1CCN(C(=O)c2cc3ccccc3n2Cc2ccc(Cl)cc2)CC1 (stereo not drawn) | > 100 | > 100 | – |
| CC1(C(=O)NCCc2ccncc2)CCN(C(=O)c2cc3ccccc3n2Cc2ccc(Cl)cc2)CC1 | > 50 | > 50 | – |
| CC(NC(=O)C1CCN(C(=O)c2cc3ccccc3n2Cc2ccc(Cl)cc2)CC1)C1Cc2ccccc2C1 (racemic) | 1.7 | > 100 | – |
